The record followed here is patent US20060111289A1, “Compositions and methods of using Alpha-fetoprotein growth inhibitory peptides” (Serometrix, LLC,, priority 2004, published 2006).

Experiment [1] has as its system cell cycle gene mRNA in MCF-7 cells. Description: Quantitative RT-PCR of cell cycle gene mRNA in MCF-7 cells. It counts as cell-based, human. To be noted: for Cyclin E1 mRNA levels, Fold Decrease: eight day treatment. Here is the method: MCF-7 cell cultures grown in charcoal-stripped medium for 24 hours were seeded in 6-well plates and allowed to attach for 24 hours before treatment with 1×10^−7M of the cyclic, linear, or scrambled peptide, or a vehicle control for either 24 or 48 hours. Total RNA was isolated using TriReagent (Molecular Research Center Inc.) and quantified using the Genequant Pro (Ambersham Biosciences).
Standard curves for each primer were prepared and RNA samples were reverse transcribed and screened for the genes of interest using the One Step RT-PCR kit (Qiagen Inc.) in the Roche Light Cycler. Each sample was run in duplicate, and the entire experiment was replicated resulting in two independent samples for each treatment.
MCF-7 cell cultures were maintained in medium with charcoal-stripped bovine serum for 24 hours prior to seeding in 6-well plates. Seeding densities varied with treatment time and were aimed at obtaining 80% confluent cell cultures at the time of harvesting; after 24, 48, or 72 hours of treatment. RNA isolation was performed as above.
MCF-7 cell cultures were maintained as above and seeded in 6-well plates at a low seeding density to obtain cell cultures that were 80% confluent at the end of the treatment. Cell cultures were treated with various concentrations of the cyclic peptide 24 hours after seeding and then every two days until harvesting the cells at day eight post-treatment RNA was isolated from each treatment.
MCF-7 cells were seeded in DC5 medium into each well of two 6-well plates and allowed to attach for 24 hours at which point the seeding medium was exchanged for serum-free medium for 24 hours. After 24 hours in serum-free medium the cells were re-fed with DC5-stripped medium containing either the vehicle control (DMSO) or GIP (from 1×10^−14 to 1×10^−5 M). Cells were re-fed every 48 hours until they were harvested after eight days of treatment and RNA was isolated. The entire procedure was repeated resulting in two independent RNA isolations. The quantity and quality of RNA isolated from each eight-day exposure for each of the concentrations are shown below. The quantity and quality of RNA obtained from these exposures is sufficient to determine the RNA expression levels of numerous genes.
MCF-7 cells were seeded at 1×10^6 cells per well in 6-well plates. The cells were incubated for 192 h in medium containing charcoal/dextran-treated BCS and test compounds described above in the proliferation assay. Peptide was administered each day for 8 days. Total RNA was isolated using the RNAqueous 4 PCR kit (Ambion Inc.) or Tri Reagent (Molecular Research Center, Inc.). The quality of the RNAs were assessed by electrophoresis on denaturing agarose gels and were quantified at 260 nm with the Genequant Pro (Amersham Biosciences).
Details for the quantitative RT-PCR protocol were previously reported. Fasco et al., “Quantitative RNA-polymerase chain reaction-DNA analysis by capillary electrophoresis and laser-induced fluorescence” Anal. Biochem. 224:140-147 (1995). Briefly, RNA samples were reverse transcribed and amplified using the One Step RT-PCR kit (Qiagen Inc.) in the Roche Light Cycler. Total RNA was diluted to […] for all genes assayed except for 28S, which was diluted to 0.001 mg/ml. Diluted total RNA ([…]) was incubated with Qiagen RT-PCR master mix and was reverse transcribed for 30 min at 50° C. Following reverse transcription, samples were heated for 15 min at 95° C. to activate the HotStarTaq DNA polymerase and to simultaneously inactivate the reverse transcriptase. Gozgit et al., “Differential action of polycyclic aromatic hydrocarbons on endogenous estrogen-responsive genes and on a transfected estrogen-responsive reporter in MCF-7 cells” Toxicol. & Appl. Pharmacol. 196:58-67 (2004).
Gene-specific primers ([…]) were used for the following: Cyclin D3, D1, CDK2, CDK4, CDK6, RB1, Ki67, Cyclin E1, Cyclin BI, and with B-Actin serving as housekeeping (control) gene. […]

The test system of experiment [2] is three human cancer cell lines (breast, prostate, or kidney). Briefly: Sulforhodamine cytostatic 6-day assay, cyclic versus linear peptide. It counts as cell-based. The note with it: linear versus cyclic configuration. Here is the method: FIG. 3 presents exemplary data showing the growth suppressive activities of the oligomeric forms of P149, cyclic versus linear, are depicted in various in vitro and in vivo models. Biological activity was determined by three growth-dependent bioassays, namely; • Panel-A and A1) an immature rodent uterine bioassay; • Panel-B and B 1) an in vitro MCF-7 foci assay; • Panel-C and C1) an in vitro tumor cell cytostatic assessment. […] See text for details. Scrambled peptide=P327.
GIP is a major participant in tumor cell surface interactions. GIP is a potent suppressor of tumor proliferation in both rodent and human cell models. GIP's biological activity is dependent on its oligomeric state, specifically its trimer (linear) versus monomer (cyclic) configuration. Biological activity was determined by three growth-dependent bioassays, namely, i) an immature rodent uterine assay; ii) an in vitro MCF-7 foci assay; and iii) an in vitro cytostatic assessment. […]
The cyclic form of GIP constitutes a disulfide-bridged monomer in solution, whereas GIP in the linear configuration is known to exist as an oligomeric trimer. […] Using three different human cancer cell lines (breast, prostate, or kidney) it was readily demonstrable that the monomeric cyclic form of the peptide produced 80-90% growth inhibition over a range of 10^−5 M to 10^−7 M when the sulforhodamine cytostatic 6-day assay was employed. […]

Where a SMILES comes first, the peptide text is derived from it.

For `CC[C@H](C)[C@H](NC(=O)[C@@H]1CSSC[C@H](NC(=O)[C@H](C)NC(=O)[C@H](CC(C)C)NC(=O)[C@H](CC(C)C)NC(=O)[C@H](CCCCN)NC(=O)[C@H](CC(=O)O)NC(=O)[C@H](CCC(=O)O)NC(=O)[C@H](CO)NC(=O)[C@@H](N)CC(C)C)C(=O)NCC(=O)N[C@@H](CCC(=O)O)C(=O)NCC(=O)N[C@@H](C)C(=O)N[C@@H](C)C(=O)N[C@@H](CC(=O)O)C(=O)N[C@@H]([C@@H](C)CC)C(=O)N[C@@H]([C@@H](C)CC)C(=O)N[C@@H]([C@@H](C)CC)C(=O)NCC(=O)N[C@@H](Cc2c[nH]cn2)C(=O)N[C@@H](CC(C)C)C(=O)N1)C(=O)N[C@@H](CCCNC(=N)N)C(=O)N[C@@H](Cc1c[nH]cn1)C(=O)N[C@@H](CCC(=O)O)C(=O)N[C@@H](CCSC)C(=O)N[C@H](C(=O)N1CCC[C@H]1C(=O)N[C@H](C(=O)N[C@@H](CC(N)=O)C(=O)N1CCC[C@H]1C(=O)NCC(=O)N[C@H](C(=O)O)C(C)C)C(C)C)[C@@H](C)O` [Cyclic GIP] (HELM PEPTIDE1{L.S.E.D.K.L.L.A.C.G.E.G.A.A.D.I.I.I.G.H.L.C.I.R.H.E.M.T.P.V.N.P.G.V}$PEPTIDE1,PEPTIDE1,9:R3-22:R3$$$V2.0; N-terminus and C-terminus assumed), the “mRNA levels of CDK2, CDK4, CDK6, Cyclin D1, CCND3, RB1” value in experiment [1] (1×10^−7 M, 24 or 48 hours) is “did not result in significant changes in mRNA levels”. Moreover, the “Cyclin D1 mRNA, fold increase” value in experiment [1] (8 days) was determined as 1.71 fold. Further, the “Ki67, cdk2, cdk6, and Cyclin B1 mRNA levels” value is “no effect” in experiment [1] (8 days) and “little changes in mRNA expression levels” in experiment [1] (8 days, listed as cyclic peptide). Besides, the “Rb1 mRNA, fold increase” value in experiment [1] (8 days) was determined as 2.4 fold. Also, the “cdk4 mRNA, fold increase” value in experiment [1] (8 days) is 2.4 fold. The “Expression of Cyclin D1, RB1 and CDK4” value in experiment [1] (8 days, 0.1 nM (Cyclin D1 and RB1) or 1 pM (CDK4)) was “increased about two-fold”. Besides, the “Cyclin-E mRNA, fold reduction” value in experiment [1] (8 days, 10^−8 to 10^−12 M) is 2.1 to 4.6 fold. The “Expression levels of Cyclin E1” value in experiment [1] (8 days, each of the five concentrations tested) is “greatly reduced”. Also, the “Cyclin E1 mRNA levels, Fold Decrease” value is 4.58 fold in experiment [1] (concentration 1e−08 (10 nM)); 3.03 fold in experiment [1] (concentration 1e−09); 2.07 fold in experiment [1] (concentration 1e−10); 2.36 fold in experiment [1] (concentration 1e−11); 3.26 fold in experiment [1] (concentration 1e−12 (1 pM)). Moreover, in experiment [2], the “Inhibition in the in vitro cytostatic assay” value was 80-90%.
